Experimental data: PMC6816013 (Journal of Medicinal Chemistry, 2019)
“Also recorded” adds a separate entry of the source. Structures can show the parent of a compound that is named as a salt. Where two headings read alike, the source gives them in different places.

What was measured:
[1] = target: HSA (Homo sapiens, UniProt P02768); assay: HSA binding (plasma protein binding); format: in vitro ADME
[2] = tested on: Plasmodium falciparum 3D7A; conditions: read-out: Pf EC50; 3D7A asexual blood stage, 48 h [3H]-hypoxanthine assay, maximal concentration 5 μM
[3] = Cell cytotoxicity assay; format: cell-based; conditions: for cytotoxicity/cell activity safety window: cytotoxicity EC50 / Pf EC50
[4] = aqueous solubility
[5] = ChromlogD
[6] = tested on: Plasmodium falciparum WT cell line; assay: Growth inhibition of P. falciparum WT cell line at 48 and 72 h; format: cell-based; conditions: read-out: Pf WT cell line EC50 72h
[7] = tested on: P. falciparum strain 3D7A; format: cell-based, Plasmodium falciparum
[8] = tested on: Plasmodium falciparum 3D7A; assay: microbe, parasite or virus in culture; conditions: read-out: Pf EC50
[9] = target: T1, SRPK2 (Plasmodium falciparum, UniProt Q8IL41); assay: Pull down with compound 31 or 50 attached to beads, competition with free compound; format: binding; conditions: competed with free analogue, Figure 4b
T1 sequence (Q8IL41 1-1268): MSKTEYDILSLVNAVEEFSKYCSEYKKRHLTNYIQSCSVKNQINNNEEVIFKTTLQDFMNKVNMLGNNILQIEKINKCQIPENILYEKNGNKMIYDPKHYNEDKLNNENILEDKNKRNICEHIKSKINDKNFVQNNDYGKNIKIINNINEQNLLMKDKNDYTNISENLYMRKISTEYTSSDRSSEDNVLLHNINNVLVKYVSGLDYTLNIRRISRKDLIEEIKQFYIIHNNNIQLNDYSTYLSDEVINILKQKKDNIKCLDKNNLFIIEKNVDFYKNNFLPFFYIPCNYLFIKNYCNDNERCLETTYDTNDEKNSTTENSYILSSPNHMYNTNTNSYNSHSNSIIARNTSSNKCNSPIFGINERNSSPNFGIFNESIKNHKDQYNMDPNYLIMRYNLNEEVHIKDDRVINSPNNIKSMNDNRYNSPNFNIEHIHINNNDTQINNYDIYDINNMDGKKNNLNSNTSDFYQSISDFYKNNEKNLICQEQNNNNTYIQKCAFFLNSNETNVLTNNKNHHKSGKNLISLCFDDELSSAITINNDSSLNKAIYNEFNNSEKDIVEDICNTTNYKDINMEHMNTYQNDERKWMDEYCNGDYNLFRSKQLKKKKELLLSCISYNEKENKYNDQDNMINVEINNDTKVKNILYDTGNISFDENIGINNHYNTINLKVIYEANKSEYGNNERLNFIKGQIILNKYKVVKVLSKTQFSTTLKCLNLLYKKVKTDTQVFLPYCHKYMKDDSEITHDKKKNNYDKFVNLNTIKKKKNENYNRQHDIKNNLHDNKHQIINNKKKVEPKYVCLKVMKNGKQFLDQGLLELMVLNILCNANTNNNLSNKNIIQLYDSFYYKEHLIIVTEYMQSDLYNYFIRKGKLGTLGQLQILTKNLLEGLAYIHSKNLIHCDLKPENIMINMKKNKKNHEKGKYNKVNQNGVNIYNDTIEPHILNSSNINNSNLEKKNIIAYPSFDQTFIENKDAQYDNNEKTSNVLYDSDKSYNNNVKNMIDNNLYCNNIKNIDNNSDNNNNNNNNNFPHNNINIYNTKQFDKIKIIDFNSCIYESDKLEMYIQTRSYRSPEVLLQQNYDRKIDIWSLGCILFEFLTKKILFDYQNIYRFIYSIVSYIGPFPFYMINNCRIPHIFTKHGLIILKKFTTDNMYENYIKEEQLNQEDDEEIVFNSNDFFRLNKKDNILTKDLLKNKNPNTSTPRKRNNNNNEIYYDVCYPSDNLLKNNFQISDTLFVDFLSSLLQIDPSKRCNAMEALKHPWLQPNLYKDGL

[10] = target: T2, serine/arginine protein kinase 2 (SRPK2 or CLK2) (Plasmodium falciparum, UniProt Q8IL41); assay: Kinobeads competition binding in P. falciparum extract; conditions: Figure 4a, read-out: Kd^app SRPK2
T2 sequence (Q8IL41 1-1268): T1 sequence (Q8IL41 1-1268)

[11] = Intrinsic clearance in rat liver microsomes; format: in vitro ADME; conditions: 0.5 µM
[12] = PRR, 10 × EC50, result in words

Sequence of HSA (P02768 25-609): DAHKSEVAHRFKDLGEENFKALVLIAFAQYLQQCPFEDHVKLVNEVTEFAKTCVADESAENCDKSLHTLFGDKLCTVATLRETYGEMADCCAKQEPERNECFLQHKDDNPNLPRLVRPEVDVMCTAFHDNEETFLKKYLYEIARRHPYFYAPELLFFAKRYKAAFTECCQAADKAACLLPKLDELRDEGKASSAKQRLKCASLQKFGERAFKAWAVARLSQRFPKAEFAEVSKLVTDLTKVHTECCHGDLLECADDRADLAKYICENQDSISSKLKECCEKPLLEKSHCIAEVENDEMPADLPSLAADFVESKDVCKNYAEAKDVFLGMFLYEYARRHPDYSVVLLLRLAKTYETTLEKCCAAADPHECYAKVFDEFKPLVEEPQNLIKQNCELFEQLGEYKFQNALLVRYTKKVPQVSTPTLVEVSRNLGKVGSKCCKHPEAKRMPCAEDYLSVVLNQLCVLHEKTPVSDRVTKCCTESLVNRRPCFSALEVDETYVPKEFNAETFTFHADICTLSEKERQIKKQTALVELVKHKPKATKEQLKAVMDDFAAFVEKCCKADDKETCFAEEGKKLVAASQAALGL

4-(4-(4-Fluorophenyl)-2-(piperidin-4-yl)thiazol-5-yl)-N-(1-(piperidin-4-yl)-1H-pyrazol-3-yl)pyrimidin-2-amine [Compound 24]
HSA binding [1]: 93% | EC50 [2]: 3.31 µM | EC50 [3]: 100 µM | AMP (Tables 2 and 5): 3e-07 cm/s | Solubility [4]: 131 µM | logD [5]: 1.29

CN1CCC(c2nc(-c3ccc(F)c(NS(C)(=O)=O)c3)c(-c3ccnc(NCC4CC4)n3)s2)CC1 [Compound 5, reference compound]
EC50 [6]: 0.11 µM | HSA binding [1]: 91% | rate of killing in PRR study [7, 12]: slow-acting compound; also recorded: slow parasite killing kinetics | AMP (Tables 1 and 4): 3.4e-05 cm/s | AMP (Tables 2 and 5): 3.4e-06 cm/s

CN1CCN(c2ccc(Nc3nccc(-c4sc(C5CCNCC5)nc4-c4ccc(F)cc4)n3)cc2)CC1 [Compound 7, reference compound]
HSA binding [1]: 97% | cytotoxicity/cell activity safety window [3]: 5.4

Nc1nc(-c2ccc(F)cc2)c(-c2ccnc(Nc3ccc(N4CCOCC4)cc3)n2)s1 [Compound 13, 4-[2-Amino-4-(4-fluorophenyl)-1,3-thiazol-5-yl]-N-[4-(morpholin-4-yl)phenyl]pyrimidin-2-amine]
EC50 [8]: > 5 µM

Cc1cc(Nc2nccc(-c3sc(C4CCNCC4)nc3-c3ccc(F)cc3)n2)nn1C [Compound 23, N-(1,5-Dimethyl-1H-pyrazol-3-yl)-4-(4-(4-fluorophenyl)-2-(piperidin-4-yl)thiazol-5-yl)pyrimidin-2-amine]
HSA binding [1]: 93% | AMP (Tables 2 and 5): 2e-06 cm/s

Fc1ccc(-c2nc(C3CCNCC3)sc2-c2ccnc(Nc3ccccn3)n2)cc1 [Compound 25, 4-(4-(4-Fluorophenyl)-2-(piperidin-4-yl)thiazol-5-yl)-N-(pyridin-2-yl)pyrimidin-2-amine]
HSA binding [1]: 94% | AMP (Tables 2 and 5): 3.3e-06 cm/s

Fc1ccc(-c2nc(C3CCNCC3)sc2-c2ccnc(Nc3cnccn3)n2)cc1 [Compound 26, 4-(4-(4-Fluorophenyl)-2-(piperidin-4-yl)thiazol-5-yl)-N-(pyrazin-2-yl)pyrimidin-2-amine]
HSA binding [1]: 92% | AMP (Tables 2 and 5): 1.6e-06 cm/s

Fc1ccc(-c2nc(C3CCNCC3)sc2-c2ccnc(Nc3cccnn3)n2)cc1 [Compound 27, N-(4-(4-(4-Fluorophenyl)-2-(piperidin-4-yl)thiazol-5-yl)pyrimidin-2-yl)pyridazin-3-amine]
HSA binding [1]: 90% | AMP (Tables 2 and 5): 1.9e-06 cm/s

Fc1ccc(-c2nc(C3CCNCC3)oc2-c2ccnc(Nc3ccncn3)n2)cc1 [Compound 28B]
HSA binding [1]: 89% | AMP (Tables 2 and 5): 1.9e-06 cm/s

Cc1nccc(Nc2nccc(-c3sc(C4CCNCC4)nc3-c3ccc(F)cc3)n2)n1 [Compound 29, 4-[4-(4-Fluorophenyl)-2-(piperidin-4-yl)-1,3-thiazol-5-yl]-N-(2-methylpyrimidin-4-yl)pyrimidin-2-amine]
HSA binding [1]: 91% | AMP (Tables 2 and 5): 1.8e-06 cm/s

Cc1cc(Nc2nccc(-c3sc(C4CCNCC4)nc3-c3ccc(F)cc3)n2)ccn1 [Compound 31, 4-(4-(4-Fluorophenyl)-2-(piperidin-4-yl)thiazol-5-yl)-N-(2-methylpyridin-4-yl)pyrimidin-2-amine]
HSA binding [1]: 97.8% | rate of killing in PRR study [7, 12]: extremely fast-killing effect | cytotoxicity/cell activity safety window [3]: 25 | AMP (Tables 2 and 5): 2.1e-06 cm/s

Cc1nc(Nc2nccc(-c3sc(C4CCNCC4)nc3-c3ccc(F)cc3)n2)ccc1F [Compound 35, N-(5-Fluoro-6-methylpyridin-2-yl)-4-(4-(4-fluorophenyl)-2-(piperidin-4-yl)thiazol-5-yl)pyrimidin-2-amine]
HSA binding [1]: 96% | AMP (Tables 2 and 5): 3e-06 cm/s

OC(CNc1nccc(-c2sc(C3CCNCC3)nc2-c2ccc(F)cc2)n1)c1ccncc1 (stereo not drawn) [Compound 40, 2-({4-[4-(4-Fluorophenyl)-2-(piperidin-4-yl)-1,3-thiazol-5-yl]pyrimidin-2-yl}amino)-1-(pyridin-4-yl)ethanol]
HSA binding [1]: 85% | EC50 [8]: 1.05 µM | AMP (Tables 2 and 5): 1e-07 cm/s

Nc1nccc(-c2sc(C3CCNCC3)nc2-c2ccc(F)cc2)n1 [Compound 41, 4-[4-(4-Fluorophenyl)-2-(piperidin-4-yl)-1,3-thiazol-5-yl]pyrimidin-2-amine]
HSA binding [1]: 75% | AMP (Tables 1 and 4): 1.3e-05 cm/s

Fc1ccc(-c2nc(C3CCNCC3)sc2-c2ccnc(NCCN3CCSCC3)n2)cc1 [Compound 50, 4-(4-(4-Fluorophenyl)-2-(piperidin-4-yl)thiazol-5-yl)-N-(2-thiomorpholinoethyl)pyrimidin-2-amine]
HSA binding [1]: 90% | apparent Kd SRPK2 on immobilized compounds [9]: not bind to 50 attached to beads | Kd [10]: > 20 µM

Cc1cc(Nc2nccc(-c3sc(C4CCNCC4)nc3C3CC3)n2)ccn1 [Compound 59, 4-(4-Cyclopropyl-2-(piperidin-4-yl)thiazol-5-yl)-N-(2-methylpyridin-4-yl)pyrimidin-2-amine Dihydrochloride]
Cl rat [11]: 1.8 mL/min/g | rate of killing in PRR study [7]: potent fast-killing properties | AMP (PAMPA): 1.8

Cc1cc(Nc2nccc(-c3sc(C4CCNCC4)nc3CN3CCCCC3)n2)ccn1 [Compound 60, N-(2-Methylpyridin-4-yl)-4-(4-(piperidin-1-ylmethyl)-2-(piperidin-4-yl)thiazol-5-yl)pyrimidin-2-amine Trihydrochloride]
rate of killing in PRR study [7, 12]: potent fast-killing properties | cytotoxicity/cell activity safety window [3]: 105

C[C@H]1[C@H](OC(=O)CCC(=O)O)O[C@@H]2O[C@@]3(C)CC[C@H]4[C@H](C)CC[C@@H]1[C@@]24OO3 [artesunate]
rate of killing in PRR study [7, 12]: fast rate of killing

O=C1C(O)=C([C@H]2CC[C@H](c3ccc(Cl)cc3)CC2)C(=O)c2ccccc21 [atovaquone]
rate of killing in PRR study [7, 12]: slow rate of killing

CCc1nc(N)nc(N)c1-c1ccc(Cl)cc1 [pyrimethamine]
rate of killing in PRR study [7, 12]: moderate rate of killing
